The assay deals with MCH receptors. Description: MCH receptor activity class (method not given).
The mark [1] stands for this setting: class by percent of control at 10^-7 M or IC50.
[2] abbreviates: activity class 1-3: percent of control at 10^-7 M or IC50.

Structures are written as SMILES.

For `CN(C)c1nc(N[C@H]2CC[C@@H](NC[C@@H](COCc3ccccc3)OCc3ccccc3)CC2)nc2c1CCCC2` [compound 1487], the class under setting [1] was 3 (Class 3 The value of percent of control at 10^−7 M was more than 60% or the value of IC50 was more than 200 nM.).

On to `COc1cc2ccccc2cc1CN[C@H]1CC[C@@H](Nc2nc3c(c(N(C)C)n2)CCCC3)CC1` [compound 1488], for which the class under setting [1] is reported as 3 (Class 3 The value of percent of control at 10^−7 M was more than 60% or the value of IC50 was more than 200 nM.).

`Cc1cccc(N(CCC#N)CCN[C@H]2CC[C@@H](Nc3nc4c(c(N(C)C)n3)CCCC4)CC2)c1` [compound 1489]: under setting [1], the class is recorded as 2 (Class 2: The value of percent of control at 10^−7 M was from 40% to 60% or the value of IC′50 was from 50 nM to 200 nM.).

As to `CN(C)c1nc(N[C@H]2CC[C@@H](NCCN(CCC#N)c3ccccc3)CC2)nc2c1CCCC2` [compound 1490], the class under setting [1] is 1 (Class 1: The value of percent of control at 10^−7 M was less than 40% or the value of IC50 was less than 50 nM.).

Take `Cc1ccc(S(=O)(=O)N[C@H](CN[C@H]2CC[C@@H](Nc3nc4c(c(N(C)C)n3)CCCC4)CC2)Cc2ccccc2)cc1` [compound 1491]: the class under setting [1] was 1 (Class 1: The value of percent of control at 10^−7 M was less than 40% or the value of IC50 was less than 50 nM.).

Turning to `COc1cc(CCN[C@H]2CC[C@@H](Nc3nc4c(c(N(C)C)n3)CCCC4)CC2)cc(OC)c1` [compound 1493], under setting [1], the class is 2 (Class 2: The value of percent of control at 10^−7 M was from 40% to 60% or the value of IC′50 was from 50 nM to 200 nM.).

With `CN(C)c1nc(N[C@H]2CC[C@@H](NCCc3c(-c4ccccc4)[nH]c4ccccc34)CC2)nc2c1CCCC2` [compound 1494], the class under setting [1] is given as 3 (Class 3 The value of percent of control at 10^−7 M was more than 60% or the value of IC50 was more than 200 nM.).

As for `CN(C)c1nc(N[C@H]2CC[C@@H](NCC(c3ccc(Cl)cc3)c3ccc(Cl)cc3)CC2)nc2c1CCCC2` [compound 1495], the class under setting [1] was 3 (Class 3 The value of percent of control at 10^−7 M was more than 60% or the value of IC50 was more than 200 nM.).

`CN(C)c1nc(N[C@H]2CC[C@@H](NCC3CN(C(c4ccccc4)c4ccccc4)C3)CC2)nc2c1CCCC2` [compound 1497]: under setting [1], the class is 1 (Class 1: The value of percent of control at 10^−7 M was less than 40% or the value of IC50 was less than 50 nM.).

With `CN(C)c1nc(N[C@H]2CC[C@@H](CNCCc3ccc(Br)cc3)CC2)nc2c1CCCC2` [compound 1498], the class under setting [1] was 3 (Class 3 The value of percent of control at 10^−7 M was more than 60% or the value of IC50 was more than 200 nM.).

As to `COc1ccc(CCCCNC[C@H]2CC[C@@H](Nc3nc4c(c(N(C)C)n3)CCCC4)CC2)cc1` [compound 1499], the class under setting [1] is 3 (Class 3 The value of percent of control at 10^−7 M was more than 60% or the value of IC50 was more than 200 nM.).

In the case of `CN(C)c1nc(N[C@H]2CC[C@@H](CNCCCCCCc3ccccc3)CC2)nc2c1CCCC2` [compound 1500], under setting [1], the class is on record as 3 (Class 3 The value of percent of control at 10^−7 M was more than 60% or the value of IC50 was more than 200 nM.).

`Cc1cc(C)c(CCNC[C@H]2CC[C@@H](Nc3nc4c(c(N(C)C)n3)CCCC4)CC2)c(C)c1` [compound 1501]: under setting [1], the class is 3 (Class 3 The value of percent of control at 10^−7 M was more than 60% or the value of IC50 was more than 200 nM.).

With `CN(C)c1nc(N[C@H]2CC[C@@H](CNCCCCCCCCc3ccccc3)CC2)nc2c1CCCC2` [compound 1502], the class under setting [1] was 3 (Class 3 The value of percent of control at 10^−7 M was more than 60% or the value of IC50 was more than 200 nM.).

Consider `CN(C)c1nc(N[C@H]2CC[C@@H](CNCCc3ccc(C(C)(C)C)cc3)CC2)nc2c1CCCC2` [compound 1503], for which the class under setting [1] is 3 (Class 3 The value of percent of control at 10^−7 M was more than 60% or the value of IC50 was more than 200 nM.).

On to `COc1ccccc1CCNC[C@H]1CC[C@@H](Nc2nc3c(c(N(C)C)n2)CCCC3)CC1` [compound 1504], for which, under setting [1], the class is recorded as 3 (Class 3 The value of percent of control at 10^−7 M was more than 60% or the value of IC50 was more than 200 nM.).

Take `CN(C)c1nc(N[C@H]2CC[C@@H](CNCCCOc3ccccc3)CC2)nc2c1CCCC2` [compound 1505]: the class under setting [1] is on record as 3 (Class 3 The value of percent of control at 10^−7 M was more than 60% or the value of IC50 was more than 200 nM.).

`COc1ccc(Cl)cc1CNC[C@H]1CC[C@@H](Nc2nc3c(c(N(C)C)n2)CCCC3)CC1` [compound 1506]: the class under setting [1] is 3 (Class 3 The value of percent of control at 10^−7 M was more than 60% or the value of IC50 was more than 200 nM.).

Take `COc1cc(Cl)ccc1CNC[C@H]1CC[C@@H](Nc2nc3c(c(N(C)C)n2)CCCC3)CC1` [compound 1507]: the class under setting [1] is given as 3 (Class 3 The value of percent of control at 10^−7 M was more than 60% or the value of IC50 was more than 200 nM.).

Regarding `Cc1ccc(CNC[C@H]2CC[C@@H](Nc3nc4c(c(N(C)C)n3)CCCC4)CC2)cc1I` [compound 1508], the class under setting [1] was 3 (Class 3 The value of percent of control at 10^−7 M was more than 60% or the value of IC50 was more than 200 nM.).

For `C[C@@H](CNC[C@H]1CC[C@@H](Nc2nc3c(c(N(C)C)n2)CCCC3)CC1)N(Cc1ccccc1)Cc1ccccc1` [compound 1509], the class under setting [1] is 3 (Class 3 The value of percent of control at 10^−7 M was more than 60% or the value of IC50 was more than 200 nM.).

Take `CCCc1c(CNC[C@H]2CC[C@@H](Nc3nc4c(c(N(C)C)n3)CCCC4)CC2)cnn1-c1ccccc1` [compound 1510]: under setting [1], the class is listed as 1 (Class 1: The value of percent of control at 10^−7 M was less than 40% or the value of IC50 was less than 50 nM.).

For `CCCc1c(CNC[C@H]2CC[C@@H](Nc3nc4c(c(N(C)C)n3)CCCC4)CC2)cnn1-c1ccc(Cl)cc1` [compound 1511], under setting [1], the class is recorded as 1 (Class 1: The value of percent of control at 10^−7 M was less than 40% or the value of IC50 was less than 50 nM.).

For the molecule `CN(C)c1nc(N[C@H]2CC[C@@H](CNCCCCc3ccc([N+](=O)[O-])cc3)CC2)nc2c1CCCC2` [compound 1512], the class under setting [1] is listed as 3 (Class 3 The value of percent of control at 10^−7 M was more than 60% or the value of IC50 was more than 200 nM.).

Turning to `CN(C)c1ccnc(N[C@H]2CC[C@@H](NCCc3ccc(Br)cc3)CC2)n1` [compound 1513], the class under setting [1] was 3 (Class 3 The value of percent of control at 10^−7 M was more than 60% or the value of IC50 was more than 200 nM.).

On to `CN(C)c1ccnc(N[C@H]2CC[C@@H](NCCc3cccc(Cl)c3)CC2)n1` [compound 1514], for which the class under setting [2] is reported as 3 (Class 3 The value of percent of control at 10^−7 M was more than 60% or the value of IC50 was more than 200 nM.).

For the molecule `CN(C)c1ccnc(N[C@H]2CC[C@@H](NCCOc3ccccc3Cl)CC2)n1` [compound 1515], the class under setting [2] was 3 (Class 3 The value of percent of control at 10^−7 M was more than 60% or the value of IC50 was more than 200 nM.).

On to `COC(CNC1CCC(Nc2nccc(N(C)C)n2)CC1)c1ccccc1` (centres unmarked) [compound 1517], for which the class under setting [2] is 3 (Class 3 The value of percent of control at 10^−7 M was more than 60% or the value of IC50 was more than 200 nM.).

As to `CN(C)c1ccnc(N[C@H]2CC[C@@H](NCCOc3ccc(Br)cc3)CC2)n1` [compound 1518], the class under setting [2] is 3 (Class 3 The value of percent of control at 10^−7 M was more than 60% or the value of IC50 was more than 200 nM.).

The values are drawn from patent publication US20050197350A1, “Novel quinoline, tetrahydroquinazoline, and pyrimidine derivatives and methods of treatment related to the use thereof” (TAISHO PHARMACEUTICAL CO., LTD., priority 2003, published 2005).
